The text below walks through data of patent US20250367170A1, “TOPICAL ANGIOTENSIN II RECEPTOR BLOCKERS (ARBS) FOR TREATING EYE CONDITIONS” (The Cleveland Clinic Foundation, priority 2022, published 2025).

In the data set the test system is rabbit corneas after Descemetorhexis. Put plainly: Slit lamp opacity, scarring fibrosis and neovascularization one month after Descemetorhexis or sham surgery. It is filed as in vivo, New Zealand White rabbits. To be noted: for intensity of opacity in a 2.5 mm circle of central cornea (ImageJ) vs vehicles or oral losartan alone: P<0.05. Here is the method: All procedures involving animals were approved by the Institutional Animal Care and Use Committee (IACUC) at the Cleveland Clinic Foundation (Cleveland, OH, USA) and the Animal Care and Use Review Office of the Department of the Army (Fort Detrick, MD). All animals were treated in accordance with the tenets of the ARVO Statement for the Use of Animals in Ophthalmic and Vision Research. Twenty-eight 10- to 15-week-old female New Zealand White rabbits weighing 2.5 to 3.0 kg each were included in this study—four in each group.
The rabbits had general anaesthesia with 30 mg/kg ketamine hydrochloride and 5 mg/kg xylazine by IM injection. In addition, topical proparacaine hydrochloride 1% (Alcon, Ft Worth, TX, USA) was applied to each eye prior to the surgery. One cornea selected at random in each group either had sham surgery without Descemetorhexis or an 8 mm diameter central Descemet's membrane-endothelial excision. The time point of one month after surgery was selected for the study because myofibroblasts and fibrosis in the posterior cornea was maximal at this time point in a prior time course Descemetorhexis study (Sampaio et al., 2021). Descemetorhexis was performed as described in the prior study (Sampaio et al., 2021). Briefly, a wire lid speculum was placed into one eye of each rabbit and an 8 mm diameter gentian violet circle was marked on the epithelial surface for reference. A limbal entry incision was created with a 1.6 mm blade (Bausch and Lomb, Rochester, NY, USA) and 0.3 ml Healon OVD (Abbott Medical Optics Inc. Santa Ana, CA, USA) was injected into the anterior chamber. A reversed Sinskey hook (Katena, Denville, New Jersey, USA) was placed into the anterior chamber and an 8 mm diameter disc of Descemet's membrane and endothelium was excised underlying the 8 mm area previously marked on the anterior corneal surface, without a subsequent endothelial corneal transplant. No removal of Descemet's membrane or endothelium was performed in unwounded sham surgery eyes. Remaining Healon OVD was removed with a Simcoe irrigation and aspiration cannula (Bausch & Lomb, Storz, Rochester, NY, USA) and the anterior chamber was filled with balanced salt solution (BSS). A single 10-0 nylon suture was placed at the incision site to prevent leakage from the anterior chamber. One drop of ciprofloxacin (Alcon, Ft. Worth, TX, USA) was applied to the corneas immediately after surgery and four times a day until the epithelium entry wound healed at approximately 2 days.
The oral solution was prepared with 5 ml distilled water+50 ml ora-plus (suspending vehicle—Perrigo, Dublin, Ireland)+45 ml Ora-sweet (flavored syrup vehicle—Perrigo).
After one month of treatment, study eyes were dilated with two drops of 1% tropicamide (Akom Co., Lake Forest, IL) for thirty minutes. After general anaesthesia, the study eye in each rabbit had standardized slit lamp photographs at 20× magnification with a Haag Streit (Mason, OH, USA) BX900 slit lamp photography system using identical lighting position and intensity. For each study eye, the intensity of a 2.5 mm diameter central circle (not including the light reflex, examples shown in FIG. 1) was determined using ImageJ 1.53a analysis software. Statistical comparisons of the intensity of opacity was performed using the Kruskal-Wallis test followed by post-hoc Dunn's-Bonferroni test and p<0.05 was considered statistically significant

[1] abbreviates: Descemetorhexis, topical losartan.

For the compound `CCCCc1nc(Cl)c(CO)n1Cc1ccc(-c2ccccc2-c2nn[nH]n2)cc1` [losartan], the “scarring fibrosis and neovascularization compared to vehicle control corneas” value (Descemetorhexis, oral 5 mg/kg three times a day) is recorded as “no difference”. Besides, the “scarring fibrosis (slit lamp)” value (Descemetorhexis, topical 0.1 mg/ml six times per day) is “overall decrease”. The “changes in corneal opacity and neovascularization compared with topical losartan alone” value (Descemetorhexis, topical 0.1 mg/ml six times per day and oral 5 mg/kg three times a day) is “not different”. The “intensity of opacity in a 2.5 mm circle of central cornea (ImageJ) vs vehicles or oral losartan alone” value was “significant decrease” (Descemetorhexis, topical and oral losartan); “significant decrease” under setting [1]. In addition, under setting [1], the “corneal neovascularization that developed after Descemetorhexis” value is on record as “reduced”. Besides, the “effect on the transparency of sham unwounded corneas” value (oral 5 mg/kg three times per day) is “no effect” and the “effect on the transparency of sham unwounded corneas” value (topical 0.1 mg/ml six times per day) is listed as “no effect”.
